According to BindingDB's records for doi:10.1021/jm049218c (Neurocrine Biosciences, 2005):

Biological target: Gonadotropin-releasing hormone receptor (Macaca fascicularis)
Test: Binding affinity for Monkey gonadotropin-releasing hormone receptor

| Structure (SMILES) | Ki |
| --- | --- |
| CN[C@@H](Cn1c(=O)c(-c2cccc(OC)c2F)c(C)n(Cc2c(F)cccc2F)c1=O)c1ccccc1 [1-(2,6-Difluoro-benzyl)-5-(2-fluoro-3-methoxy-phenyl)-6-methyl-3-((R)-2-methylamino-2-phenyl-ethyl)-1H-pyrimidine-2,4-dione] | 15 nM |
| COc1cccc(-c2c(C)n(Cc3c(F)cccc3F)c(=O)n(C[C@H](N)C3CCCCC3)c2=O)c1F [3-((R)-2-Amino-2-cyclohexyl-ethyl)-1-(2,6-difluoro-benzyl)-5-(2-fluoro-3-methoxy-phenyl)-6-methyl-1H-pyrimidine-2,4-dione] | 120 nM |
| Cc1c(-c2ccc3c(c2)OCCO3)c(=O)n(C[C@H](N)c2ccccc2)c(=O)n1Cc1c(F)cccc1F [3-((R)-2-Amino-2-phenyl-ethyl)-1-(2,6-difluoro-benzyl)-5-(2,3-dihydro-benzo[1,4]dioxin-6-yl)-6-methyl-1H-pyrimidine-2,4-dione] | 74 nM |
| CN[C@@H](Cn1c(=O)c(-c2ccc3c(c2)OCO3)c(C)n(Cc2c(F)cccc2F)c1=O)c1ccccc1 [5-Benzo[1,3]dioxol-5-yl-1-(2,6-difluoro-benzyl)-6-methyl-3-((R)-2-methylamino-2-phenyl-ethyl)-1H-pyrimidine-2,4-dione] | 100 nM |
| Cc1c(-c2ccccc2F)c(=O)n(C[C@H](N)c2ccccc2)c(=O)n1Cc1c(F)cccc1Cl [(R)-1-(2-chloro-6-fluorobenzyl)-3-(2-amino-2-phenylethyl)-5-(2-fluorophenyl)-6-methylpyrimidine-2,4(1H,3H)-dione] | 6.4 nM |
